Marks after values point to notes of the source that are not given here.
Legend:
[1] = test system: NMDA receptor associated PCP sites; settings: cited from earlier work
MA-treated mice [2] = test: Methamphetamine (MA)-induced hyperthermia; format: in vivo; settings: 24 mg/kg; MA 7.5 mg/kg i.p. x 4 at 2-h intervals
Experimental: Rectal temperature was recorded at 40 min after each MA treatment. […] Mice were sacrificed at 3 days after final MA injection.
FIGS. 10A-10B show effect of morphinans on the methamphetamine (MA)-induced hyperthermia. Mice received i.p. injections of MA (four injections of 7.5 mg/kg each) at 2-h intervals under the ambient temperature of 22.0±0.5° C. Temperatures were recorded at 40 min after each MA treatment (Arrow=MA injection).

MA-treated mice [3] = test: MA-induced behavioural sensitization; settings: morphinan 20 mg/kg i.p., last 3 days of wash-out (Ex. 3.12)
Experimental: Morphinans (20 mg/kg, i.p.) were administered last 3 days of wash-out period.

σ1 receptors = σ1 receptors (Homo sapiens, UniProt Q99720); settings: cited from earlier work
Chain of σ1 receptors (Q99720 whole entry): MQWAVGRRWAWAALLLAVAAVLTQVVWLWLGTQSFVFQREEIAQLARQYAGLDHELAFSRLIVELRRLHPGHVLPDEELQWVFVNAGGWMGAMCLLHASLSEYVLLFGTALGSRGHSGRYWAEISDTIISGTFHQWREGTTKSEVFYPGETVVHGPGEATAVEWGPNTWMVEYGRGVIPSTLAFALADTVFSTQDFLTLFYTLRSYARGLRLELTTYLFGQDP

MA-treated mice [4] = test: Striatal dopamine and metabolites in MA-treated mice; format: in vivo; settings: for effect on MA-induced reductions in striatal DA, DOPAC and HVA: 24 mg/kg pretreatment; for Concentration DA in the striatum: 3 days after final MA
Text: Mice were sacrificed at 3 days after final MA injection.

MA-treated mice [5] = test: MA-induced hyperlocomotion; format: in vivo; settings: morphinan 20 mg/kg i.p. 30 min before MA 1 mg/kg i.p./day x 7
Experimental: FIGS. 39A-39D show effect of morphinans on the MA-induced hyperactivity in the mice. Each morphinan (20 mg/kg, i.p.) was administered 30 minutes prior to MA (1 mg/kg, i.p.). All treatments were performed for 7 days.

cocaine-treated mice [6] = test: Cocaine-induced hyperlocomotion; format: in vivo; settings: for effect on locomotor activity induced by low dose of cocaine: cocaine 5 mg/kg i.p. x 7 days, morphinan 15 or 30 mg/kg (DF 20 mg/kg) i.p.; for effect on hyperactivity induced by high dose of cocaine: cocaine 20 mg/kg i.p. x 7 days, morphinan 15 or 30 mg/kg i.p. 30 min before
Experimental: FIGS. 34A-34B show effect of morphinans on the cocaine-induced hyperactivity in the mice. Morphinans (15 and 30 mg/kg, i.p.) were administered 30 minutes prior to cocaine (5 and 20 mg/kg, i.p.). Central activity means relatively non-specific locomotor activity in the center of the box. Marginal activity means circling behaviors. All treatments were performed for 7 days.
FIGS. 35A-35D show effect of dimemorfan (DF) on cocaine-induced hyperactivity in the mice. DF (20 mg/kg, i.p.) was administered 30 minutes prior to cocaine (5 and 20 mg/kg, i.p.). All treatments were performed for 7 days.

LPS-treated mice [7] = test: Hypokinesia induced by intrastriatal LPS; settings: 12 or 24 mg/kg, twice before bilateral intrastriatal LPS
Experimental: Male mice were anesthetized with chloral hydrate (200 mg/kg, i.p.) and positioned in a small-animal stereotaxic apparatus. […] LPS (2 μg in a volume of 2 μl of PBS) was injected into both sides of the striatum over a period of 2 min, and the injection needle was kept in place for 2 min after the injection. Control animals received striatal injection with PBS.
Ten min after the last treatment with each drug, locomotor activity was measured for 30 min. After measuring the locomotor activity (i.e. 40 min after the last drug injection), the ‘absolute turn angular’ was analyzed in a 3-min monitoring period using an automated video-tracking system (Noldus Information Technology, Wagenin, The Netherlands) to examine locomotor patterns. […] Eight test boxes (40×40×30 cm high) were operated simultaneously by an IBM computer. Animals were studied individually during locomotion in each test box, where they were adapted for 10 min before starting the experiment. […] The distance traveled in cm by the animals in horizontal locomotor activity was analyzed (13, 25, 27). Data were collected and analyzed between 0900 and 1700 hr.

MA-treated mice [8] = test: MA-induced FRA-IR in the striatum; settings: morphinan 20 mg/kg i.p.; MA 1 mg/kg i.p./day x 7
Experimental: Therefore, brains were removed and used for immunocytochemical analysis at 18 h after the final cocaine/MA treatment. The coronal sections containing striatum were processed for FRA immunocytochemistry. […] The FRA antibody was used at 1:2,000 as the optimal dilution. The FRA-IR in the striatum was calculated using image analysis systems with a polaroid digital microscopic camera (Optimas version 6.2).

MPTP-treated mice [9] = test: Striatal dopamine and metabolites (HPLC-EC) in MPTP-treated mice; settings: for effect on MPTP-induced reductions in striatal DA, DOPAC and HVA: 24 mg/kg pretreatment; for Concentration DA in the striatum: mean ± S.E.M., 8 animals
MA-treated mice [10] = test: Nigral TH-IR in MA-treated mice; settings: 24 mg/kg i.p.
MPTP-treated mice [11] = test: Hypokinesia (reduction in locomotor activity) induced by MPTP; format: in vivo; settings: 12 or 24 mg/kg i.p. 30 min before MPTP (20 mg/kg/day x 7), last three days
[12] = test system: kainate or maximal electric shock; settings: kainate (24) or maximal electric shock (27); cited from earlier work
LPS-treated mice [13] = test: Striatal dopamine and metabolites in LPS-treated mice; format: in vivo; settings: for effect on LPS-induced reductions in striatal DA, DOPAC and HVA: 24 mg/kg pretreatment; for Concentration DA in the striatum: 3 weeks after LPS
Text: (§1) Control animals received striatal injection with PBS.
Mice were sacrificed at 3 weeks after LPS treatment.

MA-treated mice [14] = test: Hypokinesia induced by MA; format: in vivo; settings: 12 and 24 mg/kg; 3 days after final MA
cocaine-treated mice [15] = test: Cocaine-induced Fos-related antigen-immunoreactivity (FRA-IR) in the striatum; settings: cocaine 5 mg/kg; morphinan 20 mg/kg i.p.
C57 BL/6 mice [16] = test: Conditioned place preference (psychological dependence) following repeated administration of morphinans or PCP; format: in vivo; settings: 20 or 40 mg/kg i.p. (PCP 2.5 or 5 mg/kg); vs saline
Experimental: On day 14, the guillotine doors were raised. […] Data were analyzed between 0900 and 1700 hr.

C57 BL/6 mice [17] = test: Locomotor activity and locomotor pattern following repeated administration of morphinans or PCP; format: in vivo; settings: for locomotor pattern (tracings): 40 mg/kg i.p. (PCP 5 mg/kg), FIG. 3; for marginal activity (circling behaviour; absolute turn angular): 20 or 40 mg/kg i.p./day x 7 (PCP 2.5 or 5 mg/kg), 3-min period; for marginal activity (circling behaviour; absolute turn angular) / locomotor activity (total distance moved): vs saline; for locomotor activity (total distance moved): 20 or 40 mg/kg i.p./day x 7 days, 30 min after final treatment
LPS-treated mice [18] = test: Nigral TH-IR in LPS-treated mice; format: in vivo; settings: 24 mg/kg i.p.
Text: FIGS. 8A-8B. […] Magnification=40×.
as §1

MPTP-treated mice [19] = test: Nigral tyrosine hydroxylase-like immunoreactivity in MPTP-treated mice; settings: 24 mg/kg i.p.
Experimental: Each morphinan was administered 30 min prior to every injection of MPTP for last three days (from day 4th to day 7th). Animals were sacrificed 24 h after the last MPTP treatment.

[20] = morphinan 12 (mg/kg) + MA, mean ± S.E.M., 8 animals
[21] = morphinan 12 (mg/kg) + LPS, mean ± S.E.M., 8 animals

Row | SMILES | effect on MA-induced hyperthermia (rectal temperature) (MA-treated mice [2]) | effect on MA-induced behavioural sensitization (MA-treated mice [3]) | affinity for σ1 receptors (σ1 receptors) | effect on MA-induced reductions in striatal DA, DOPAC and HVA (MA-treated mice [4]) | Concentration DOPAC in the striatum (MA-treated mice [4]; morphinan 12 (mg/kg) + MA) | Concentration HVA in the striatum (MA-treated mice [4]; morphinan 12 (mg/kg) + MA) | Concentration DA in the striatum (MA-treated mice [4]; [20]) | Concentration DOPAC in the striatum (MA-treated mice [4]; morphinan 24 (mg/kg) + MA) | Concentration HVA in the striatum (MA-treated mice [4]; morphinan 24 (mg/kg) + MA) | Concentration DA in the striatum (MA-treated mice [4]; morphinan 24 (mg/kg) + MA) | effect on MA-induced hyperlocomotion (MA-treated mice [5]) | effect on locomotor activity induced by low dose of cocaine (cocaine-treated mice [6]) | effect on hyperactivity induced by high dose of cocaine (cocaine-treated mice [6]) | effect on LPS-induced decrease in locomotor activity (LPS-treated mice [7]) | effect on MA-induced FRA-IR in the striatum (MA-treated mice [8]) | effect on MPTP-induced reductions in striatal DA, DOPAC and HVA (MPTP-treated mice [9]) | Concentration DOPAC in the striatum (MPTP-treated mice [9]; morphinan 12 (mg/kg) + MPTP) | Concentration HVA in the striatum (MPTP-treated mice [9]; morphinan 12 (mg/kg) + MPTP) | Concentration DA in the striatum (MPTP-treated mice [9]; morphinan 12 (mg/kg) + MPTP) | Concentration DOPAC in the striatum (MPTP-treated mice [9]; morphinan 24 (mg/kg) + MPTP) | also measured
1 | Cc1ccc2c(c1)[C@@]13CCCC[C@H]1[C@@H](C2)N(C)CC3 [DF, 3-methyl-17-methyl-morphinan] | attenuated by all morphinans used in this study | significantly reduced | high affinity ligands | significantly protected | 79 ± 11 ng/100 mg wet tissue | 79 ± 7 ng/100 mg wet tissue | 603 ± 65 ng/100 mg wet tissue | 94 ± 9^b ng/100 mg wet tissue | 92 ± 10^b ng/100 mg wet tissue | 762 ± 81^b ng/100 mg wet tissue | consistently effective in attenuating hyperlocomotion induced by MA | consistently attenuated locomotor activity induced by a low dose of cocaine | not uniform | neither AM nor DF were effective in attenuating locomotor hypoactivity | apparently attenuated | did not alter reductions in DA, DOPAC and HVA | 44 ± 6 ng/100 mg wet tissue | 62 ± 7 ng/100 mg wet tissue | 403 ± 55 ng/100 mg wet tissue | 52 ± 7 ng/100 mg wet tissue | affinity for NMDA receptor associated PCP sites [1]: very low affinities; Concentration HVA in the striatum (MPTP-treated mice [9]; morphinan 24 (mg/kg) + MPTP): 68 ± 6 ng/100 mg wet tissue; Concentration DA in the striatum (MPTP-treated mice [9]; morphinan 24 (mg/kg) + MPTP): 397 ± 55 ng/100 mg wet tissue; effect on MA-induced decrease in nigral TH-positive cells (MA-treated mice [10]): significantly attenuated the decrease in TH-positive cells; effect on MPTP-induced reduction in locomotor activity (MPTP-treated mice [11]): neither AM nor DF affected significantly the locomotor hypoactivity; anticonvulsant effect [12]: exhibited anticonvulsant effects; effect on LPS-induced reductions in striatal DA, DOPAC and HVA (LPS-treated mice [13]): did not alter LPS-induced reductions in DA, DOPAC and HVA levels; Concentration DOPAC in the striatum (LPS-treated mice [13]; morphinan 12 (mg/kg) + LPS): 54 ± 7 ng/100 mg wet tissue; Concentration HVA in the striatum (LPS-treated mice [13]; morphinan 12 (mg/kg) + LPS): 62 ± 8 ng/100 mg wet tissue; Concentration DA in the striatum (LPS-treated mice [13]; [21]): 635 ± 65 ng/100 mg wet tissue; Concentration DOPAC in the striatum (LPS-treated mice [13]; morphinan 24 (mg/kg) + LPS): 59 ± 8 ng/100 mg wet tissue; Concentration HVA in the striatum (LPS-treated mice [13]; morphinan 24 (mg/kg) + LPS): 63 ± 7 ng/100 mg wet tissue; Concentration DA in the striatum (LPS-treated mice [13]; morphinan 24 (mg/kg) + LPS): 459 ± 58 ng/100 mg wet tissue; effect on MA-induced reduction in locomotor activity (MA-treated mice [14]): significantly prevented MA-induced reduction in locomotor activity; effect on cocaine-induced FRA-IR in the striatum (cocaine-treated mice [15]): apparently attenuated; conditioned place preference (CPP) (C57 BL/6 mice [16]): almost no CPP effects; locomotor pattern (tracings) (C57 BL/6 mice [17]): did not produce significant marginal activity; marginal activity (circling behaviour; absolute turn angular) (C57 BL/6 mice [17]): did not significantly affect marginal activity; locomotor activity (total distance moved) (C57 BL/6 mice [17]): comparable to that with saline
2 | COc1ccc2c(c1)[C@@]13CCCC[C@H]1[C@@H](C2)N(C)CC3 [DM, 3-methoxy-17-methylmorphinan, reference compound] | attenuated by all morphinans used in this study | did not alter behavioural sensitization by MA | high affinity ligands | significantly protected | 83 ± 9 ng/100 mg wet tissue | 82 ± 9 ng/100 mg wet tissue | 625 ± 74 ng/100 mg wet tissue | 98 ± 11^b ng/100 mg wet tissue | 94 ± 8^b ng/100 mg wet tissue | 782 ± 72^c ng/100 mg wet tissue | did not affect MA (1 mg/kg, i.p./day×7)-induced hyperactivity | enhanced locomotor activity produced by a low dose of cocaine | attenuated | significantly prevented LPS-induced decrease in locomotor activity | did not affect this induction of FRA-IR | significantly protected | 69 ± 9 ng/100 mg wet tissue | 82 ± 9 ng/100 mg wet tissue | 520 ± 67 ng/100 mg wet tissue | 85 ± 10^b ng/100 mg wet tissue | Concentration HVA in the striatum (MPTP-treated mice [9]; morphinan 24 (mg/kg) + MPTP): 98 ± 11^b ng/100 mg wet tissue; Concentration DA in the striatum (MPTP-treated mice [9]; morphinan 24 (mg/kg) + MPTP): 708 ± 82^b ng/100 mg wet tissue; effect on LPS-induced reduction in nigral TH-positive cells (LPS-treated mice [18]): significantly attenuated the reduction in TH-positive cells; effect on MA-induced decrease in nigral TH-positive cells (MA-treated mice [10]): significantly attenuated the decrease in TH-positive cells; effect on MPTP-induced reduction in locomotor activity (MPTP-treated mice [11]): significantly prevented MPTP-induced reduction in locomotor activity; anticonvulsant effect [12]: exhibited anticonvulsant effects; effect on LPS-induced reductions in striatal DA, DOPAC and HVA (LPS-treated mice [13]): significantly protected; Concentration DOPAC in the striatum (LPS-treated mice [13]; morphinan 12 (mg/kg) + LPS): 68 ± 7 ng/100 mg wet tissue; Concentration HVA in the striatum (LPS-treated mice [13]; morphinan 12 (mg/kg) + LPS): 82 ± 9 ng/100 mg wet tissue; Concentration DA in the striatum (LPS-treated mice [13]; [21]): 612 ± 76 ng/100 mg wet tissue; Concentration DOPAC in the striatum (LPS-treated mice [13]; morphinan 24 (mg/kg) + LPS): 105 ± 12^b ng/100 mg wet tissue; Concentration HVA in the striatum (LPS-treated mice [13]; morphinan 24 (mg/kg) + LPS): 98 ± 8^b ng/100 mg wet tissue; Concentration DA in the striatum (LPS-treated mice [13]; morphinan 24 (mg/kg) + LPS): 892 ± 92^d ng/100 mg wet tissue; effect on MA-induced reduction in locomotor activity (MA-treated mice [14]): significantly prevented MA-induced reduction in locomotor activity; effect on cocaine-induced FRA-IR in the striatum (cocaine-treated mice [15]): Neither DM nor MM affects this induction of FRA-IR; effect on MPTP-induced decrease in nigral TH-positive cells (MPTP-treated mice [19]): significantly attenuated the decrease in TH-positive cells; conditioned place preference (CPP) (C57 BL/6 mice [16]): also produced CPP; locomotor pattern (tracings) (C57 BL/6 mice [17]): produced marginal activity; marginal activity (circling behaviour; absolute turn angular) (C57 BL/6 mice [17]): significant increase in marginal activity; locomotor activity (total distance moved) (C57 BL/6 mice [17]): significantly increased locomotor activity
